Assay in all cases: ≥ marks a high value that may be exact or a test limit, other limits are often not marked, values filed in µg/mL are converted to µM
Assay [1] has as its system Lactococcus lactis.
In assay [2] the test system is Bacillus cereus.
Assay [3] has as its system Staphylococcus epidermidis ATCC 12228.
Assay [4] deals with Klebsiella pneumoniae ATCC 10031.
Assay [5] concerns Candida albicans ATCC 36232.
Assay [6] deals with Escherichia coli KCTC 2433.
Assay [7] relates to Pseudomonas aeruginosa ATCC 9027.
Assay [8] concerns Staphylococcus aureus KCTC 3881.
For assay [9], the system named is Staphylococcus aureus AS1.72.
The subject of assay [10] is Shigella dysenteriae ATCC 9752.
The test system of assay [11] is Pseudomonas aeruginosa.
In assay [12] the test system is Proteus mirabilis ATCC 25933.
Assay [13] concerns Micrococcus luteus ATCC 4698.
Assay [14] has as its system Bacillus subtilis ATCC 6633.
Assay [15] concerns Escherichia coli AS1.349.
Assay [16] has as its system Candida albicans.
Assay [17] relates to Cryptococcus neoformans.
Assay [18] has as its system Cryptococcus neoformans ATCC 90113.
The test system of assay [19] is Escherichia coli ML-35.
The test system of assay [20] is Salmonella enterica serovar Typhimurium.
The test system of assay [21] is Klebsiella pneumoniae ATCC 13883.
For assay [22], the system named is Bacillus megaterium Bm11.
In assay [23] the test system is Candida parapsilosis.
Assay [24] has as its system Pseudomonas aeruginosa ATCC 10145.
Assay [25] deals with Staphylococcus aureus ATCC 25923.
Assay [26] relates to Staphylococcus aureus ATCC 29213.
Assay [27] concerns Streptococcus equinus.
Assay [28] concerns Klebsiella pneumoniae.
The test system of assay [29] is Candida tropicalis.
In assay [30] the test system is Pseudomonas aeruginosa ATCC 27853.
The subject of assay [31] is Salmonella enterica subsp. enterica serovar Enteritidis.
In assay [32] the test system is Serratia marcescens ATCC 8100.
Assay [33] relates to Escherichia coli ATCC 25922.
Assay [34] deals with Cryptococcus neoformans ATCC 52817.
The subject of assay [35] is Escherichia coli.
The subject of assay [36] is Salmonella enterica subsp. enterica serovar Typhimurium ATCC 14028.
Assay [37] concerns Pseudomonas aeruginosa Z61.
Assay [38] relates to Pseudomonas aeruginosa H547.
Assay [39] deals with Salmonella enterica subsp. enterica serovar Typhimurium ATCC 14028s.
Assay [40] deals with Pseudomonas aeruginosa H374.
The subject of assay [41] is Escherichia coli UB1005.
Assay [42] concerns Pseudomonas aeruginosa H744.
In assay [43] the test system is Burkholderia cepacia ATCC 25416.
Assay [44] has as its system Pseudomonas aeruginosa K799.
Assay [45] concerns Pseudomonas aeruginosa H1001.
For assay [46], the system named is Escherichia coli KCCM 11569.
Assay [47] has as its system Bacillus subtilis KCCM 11495.

The record followed here is DBAASP.

For orientation: MIC means the smallest concentration in the dilution series that meets the test's criterion for growth inhibition. Low values mean a more susceptible organism, high ones a less susceptible organism.

SMILES strings stand for the structures. Converted amounts (≈) assume the structure as drawn. “And” between values parts separate entries of the source, which are not always exact repeats. Equal entries are not always repeated.

Take `CC(C)C[C@H](NC(=O)CN)C(=O)N[C@@H](Cc1ccccc1)C(=O)N[C@@H](CC(=O)O)C(=O)N[C@H](C(=O)N[C@H](C(=O)N[C@@H](CCCCN)C(=O)NCC(=O)N[C@H](C(=O)N[C@@H](CC(C)C)C(=O)N[C@@H](CCCCN)C(=O)NCC(=O)N[C@H](C(=O)NCC(=O)N[C@@H](CCCCN)C(=O)N[C@@H](CC(N)=O)C(=O)N[C@H](C(=O)N[C@@H](C)C(=O)NCC(=O)N[C@@H](CO)C(=O)N[C@@H](CC(C)C)C(=O)N[C@@H](CC(C)C)C(=O)N[C@@H](CCC(=O)O)C(=O)N[C@@H](CCC(N)=O)C(=O)N[C@@H](CC(C)C)C(=O)N[C@@H](CCCCN)C(=O)N[C@H]1CSSC[C@@H](C(=O)O)NC(=O)CNC(=O)CNC(=O)[C@H](CO)NC(=O)[C@H](CC(C)C)NC(=O)[C@H](CCCCN)NC1=O)C(C)C)C(C)C)C(C)C)C(C)C)C(C)C` [GLFDVVKGVLKGVGKNVAGSLLEQLKCKLSGGC]: the MIC in assay [1] was no less than 37.5 µM; in [2], no less than 37.5 µM; in assay [3] it was 18.1 µM (≈ 60 µg/mL); in [4] it was 4.52 µM (≈ 15 µg/mL); in [5] it was 30.1 µM (≈ 99.9 µg/mL); in [6], 4.52 µM (≈ 15 µg/mL). Besides, the minimum inhibitory concentration (MIC) in assay [7] is greater than 30.1 µM; in assay [8], 9.04 µM (≈ 30 µg/mL); in [9], no less than 37.5 µM; in assay [10] it was 18.1 µM (≈ 60 µg/mL); in assay [11] it was greater than 100 µM; in assay [12] it was 30.1 µM (≈ 99.9 µg/mL). Moreover, the minimum inhibitory concentration (MIC) in assay [13] was 1.88 µM (≈ 6.25 µg/mL); in assay [14], 15.1 µM (≈ 50 µg/mL); in [15], no less than 100 µM; in assay [16] it was 50 µM (≈ 166 µg/mL).

For the compound `CC[C@H](C)[C@H](NC(=O)[C@H](CCCCN)NC(=O)[C@H](CCCN=C(N)N)NC(=O)[C@H](CCCN=C(N)N)NC(=O)[C@@H]1CCCN1C(=O)[C@H](CC(C)C)NC(=O)[C@H](CC(C)C)NC(=O)[C@@H](NC(=O)[C@H](CCCN=C(N)N)NC(=O)[C@H](CCSC)NC(=O)[C@H](CCCN=C(N)N)NC(=O)[C@H](CC(C)C)NC(=O)[C@H](Cc1ccccc1)NC(=O)[C@H](CO)NC(=O)[C@H](CCCCN)NC(=O)[C@H](C)NC(=O)[C@H](CC(C)C)NC(=O)[C@H](CCCN=C(N)N)NC(=O)CNC(=O)[C@H](Cc1ccccc1)NC(=O)[C@H](CCCN=C(N)N)NC(=O)[C@@H](N)CCCCN)[C@@H](C)CC)C(=O)N[C@@H](CC(C)C)C(=O)N[C@@H](CC(C)C)C(=O)N[C@@H](C)C(=O)N[C@@H](CO)C(=O)O` [KRFGRLAKSFLRMRILLPRRKILLAS], the minimal inhibitory concentration (MIC) in assay [17] was 1.91 µM and 3.98 µM; in assay [18], 3.98 µM and 1.91 µM; in assay [19] it was 0.955 µM (≈ 3 µg/mL); in [20], 0.9 µM (≈ 2.83 µg/mL); in [3] it was 1.91 µM (≈ 6 µg/mL); in assay [21] it was 0.78 µM (≈ 2.45 µg/mL). The MIC in assay [22] is 3.98 µM (≈ 12.5 µg/mL); in assay [23] it was 31.8 µM (≈ 100 µg/mL); in assay [24], 1.27 µM (≈ 4 µg/mL); in assay [25], 7.96 µM (≈ 25 µg/mL); in assay [26], greater than 10.2 µM; in assay [27] it was 7.96 µM (≈ 25 µg/mL). Further, the MIC in assay [28] is 1.91 µM and 0.9 µM; in assay [29], 31.8 µM (≈ 100 µg/mL); in assay [30] it was 3.98 µM (≈ 12.5 µg/mL); in [31], 1.91 µM (≈ 6 µg/mL); in assay [11], 0.9 µM (≈ 2.83 µg/mL); in [32], 3.98 µM (≈ 12.5 µg/mL). For the same compound, the MIC was 1.1 µM (≈ 3.46 µg/mL) in assay [33]; 3.98 µM and 1.91 µM in assay [34]; 1.27 µM (≈ 4 µg/mL) in assay [35]; greater than 31.8 µM in assay [16]; 1.91 µM and 0.637 µM in assay [36].

Consider `CC[C@H](C)[C@H](NC(=O)[C@H](CC(C)C)NC(=O)[C@@H]1CCCN1C(=O)[C@H](CCCCN)NC(=O)[C@H](C)NC(=O)[C@@H](NC(=O)[C@@H](NC(=O)[C@@H](NC(=O)[C@@H](NC(=O)[C@H](CCCCN)NC(=O)[C@H](CCCCN)NC(=O)[C@H](CC(C)C)NC(=O)[C@@H](NC(=O)[C@H](CO)NC(=O)[C@@H](NC(=O)[C@H](CC(C)C)NC(=O)[C@H](CCCCN)NC(=O)[C@H](CCCCN)NC(=O)[C@@H](NC(=O)[C@H](Cc1ccccc1)NC(=O)[C@H](CO)NC(=O)[C@H](CCCCN)NC(=O)[C@H](Cc1c[nH]c2ccccc12)NC(=O)[C@@H](N)CCCCN)[C@@H](C)CC)[C@@H](C)O)C(C)C)C(C)C)C(C)C)[C@@H](C)O)[C@@H](C)O)C(=O)N[C@@H](CO)C(=O)N[C@@H](CO)C(=O)O` [KWKSFIKKLTSVLKKVVTTAKPLISS], for which the MIC in assay [37] turned out to be 1.02 µM (≈ 3 µg/mL); in [38], 2.73 µM (≈ 8 µg/mL); in assay [39], 1.02 µM (≈ 3 µg/mL); in assay [40] it was 2.73 µM (≈ 8 µg/mL); in assay [41] it was 0.682 µM (≈ 2 µg/mL); in [42] it was 1.36 µM (≈ 4 µg/mL). The MIC was found to be 21.8 µM (≈ 64 µg/mL) in assay [43], 4 µM (≈ 11.7 µg/mL) in [30] and 1.71 µM (≈ 5 µg/mL) in assay [44].

With `CC[C@H](C)[C@H](NC(=O)[C@H](CCCCN)NC(=O)[C@H](Cc1c[nH]c2ccccc12)NC(=O)[C@H](CCCN=C(N)N)NC(=O)[C@@H](N)CCCN=C(N)N)C(=O)N[C@H](C(=O)N[C@H](C(=O)N[C@H](C(=O)N[C@@H](CCCN=C(N)N)C(=O)N[C@@H](Cc1c[nH]c2ccccc12)C(=O)N[C@@H](CCCCN)C(=O)N[C@@H](CCCCN)C(N)=O)[C@@H](C)CC)C(C)C)C(C)C` [RRWKIVVIRWKK], in assay [45], the MIC is 1.2 µM (≈ 2 µg/mL). This lies in the single-digit micromolar range.

In the case of `CC(C)C[C@H](NC(=O)CNC(=O)[C@H](Cc1cnc[nH]1)NC(=O)[C@H](Cc1cnc[nH]1)NC(=O)[C@H](CC(C)C)NC(=O)[C@H](CC(C)C)NC(=O)[C@H](C)NC(=O)[C@H](CC(N)=O)NC(=O)[C@H](CC(C)C)NC(=O)[C@@H](N)Cc1c[nH]c2ccccc12)C(=O)N[C@@H](CC(N)=O)C(=O)N[C@@H](CS)C(N)=O` [WLNALLHHGLNC], the minimum inhibitory concentration (MIC) in assay [46] and in [47] was no less than 46 µM in each case.
